Measurements taken from patent US8192962B2, “Processes for detecting toxic substances” (Daikin Industries, Ltd., priority 2001, dated 2012).

Test system: Stress protein genes
Assay: DNA chip mRNA expression in yeast, stress protein genes (Table 6)
Assay type: cell-based, Saccharomyces cerevisiae S288C
In short: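 Cells were grown at 25° C. in YPD, treated at logarithmic phase for 2 h with a chemical at a concentration inhibiting growth but not causing death, and compared with untreated cultures. Labeled cDNA was hybridized to a DNA chip carrying all yeast genes, and the expression ratio was taken from scanner fluorescence.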

manganese ethylenebis(dithiocarbamate) [(8)]
The level of expressed mRNA in the presence of chemical substance/The level of expressed mRNA in the absence of chemical substance (yeast gene YAL005C): 0.9 | The level of expressed mRNA in the presence of chemical substance/The level of expressed mRNA in the absence of chemical substance (yeast gene YAL015C): 1.1 | The level of expressed mRNA in the presence of chemical substance/The level of expressed mRNA in the absence of chemical substance (yeast gene YBL075C): 0.8 | The level of expressed mRNA in the presence of chemical substance/The level of expressed mRNA in the absence of chemical substance (yeast gene YBL093C): 1.6 | The level of expressed mRNA in the presence of chemical substance/The level of expressed mRNA in the absence of chemical substance (yeast gene YBR044C): 1.1 | The level of expressed mRNA in the presence of chemical substance/The level of expressed mRNA in the absence of chemical substance (yeast gene YBR054W): 2.1 | The level of expressed mRNA in the presence of chemical substance/The level of expressed mRNA in the absence of chemical substance (yeast gene YBR067C): 1.1 | The level of expressed mRNA in the presence of chemical substance/The level of expressed mRNA in the absence of chemical substance (yeast gene YBR072W): 2.1 | The level of expressed mRNA in the presence of chemical substance/The level of expressed mRNA in the absence of chemical substance (yeast gene YBR126C): 0.6 | The level of expressed mRNA in the presence of chemical substance/The level of expressed mRNA in the absence of chemical substance (yeast gene YBR169C): 0.9 | The level of expressed mRNA in the presence of chemical substance/The level of expressed mRNA in the absence of chemical substance (yeast gene YCL035C): 1.4 | The level of expressed mRNA in the presence of chemical substance/The level of expressed mRNA in the absence of chemical substance (yeast gene YCR021C): 0.8 | The level of expressed mRNA in the presence of chemical substance/The level of expressed mRNA in the absence of chemical substance (yeast gene YCR060W): 1.2 | The level of expressed mRNA in the presence of chemical substance/The level of expressed mRNA in the absence of chemical substance (yeast gene YCR083W): 1.5 | The level of expressed mRNA in the presence of chemical substance/The level of expressed mRNA in the absence of chemical substance (yeast gene YDL022W): 0.8 | The level of expressed mRNA in the presence of chemical substance/The level of expressed mRNA in the absence of chemical substance (yeast gene YDL025C): 1.1 | The level of expressed mRNA in the presence of chemical substance/The level of expressed mRNA in the absence of chemical substance (yeast gene YDR033W): 1.0 | The level of expressed mRNA in the presence of chemical substance/The level of expressed mRNA in the absence of chemical substance (yeast gene YDR077W): 0.8 | The level of expressed mRNA in the presence of chemical substance/The level of expressed mRNA in the absence of chemical substance (yeast gene YDR098C): 1.2 | The level of expressed mRNA in the presence of chemical substance/The level of expressed mRNA in the absence of chemical substance (yeast gene YDR155C): 1.4 | The level of expressed mRNA in the presence of chemical substance/The level of expressed mRNA in the absence of chemical substance (yeast gene YDR258C): 1.9 | The level of expressed mRNA in the presence of chemical substance/The level of expressed mRNA in the absence of chemical substance (yeast gene YDR293C): 0.6 | The level of expressed mRNA in the presence of chemical substance/The level of expressed mRNA in the absence of chemical substance (yeast gene YDR436W): 0.9 | The level of expressed mRNA in the presence of chemical substance/The level of expressed mRNA in the absence of chemical substance (yeast gene YDR513W): 1.6 | The level of expressed mRNA in the presence of chemical substance/The level of expressed mRNA in the absence of chemical substance (yeast gene YDR519W): 1.4 | The level of expressed mRNA in the presence of chemical substance/The level of expressed mRNA in the absence of chemical substance (yeast gene YEL030W): 0.7 | The level of expressed mRNA in the presence of chemical substance/The level of expressed mRNA in the absence of chemical substance (yeast gene YEL039C): 1.1 | The level of expressed mRNA in the presence of chemical substance/The level of expressed mRNA in the absence of chemical substance (yeast gene YER042W): 1.7 | The level of expressed mRNA in the presence of chemical substance/The level of expressed mRNA in the absence of chemical substance (yeast gene YER057C): 1.0 | The level of expressed mRNA in the presence of chemical substance/The level of expressed mRNA in the absence of chemical substance (yeast gene YER103W): 0.9 | The level of expressed mRNA in the presence of chemical substance/The level of expressed mRNA in the absence of chemical substance (yeast gene YER125W): 0.7 | The level of expressed mRNA in the presence of chemical substance/The level of expressed mRNA in the absence of chemical substance (yeast gene YFL014W): 3.4 | The level of expressed mRNA in the presence of chemical substance/The level of expressed mRNA in the absence of chemical substance (yeast gene YFL016C): 0.7 | The level of expressed mRNA in the presence of chemical substance/The level of expressed mRNA in the absence of chemical substance (yeast gene YFL020C): 0.7 | The level of expressed mRNA in the presence of chemical substance/The level of expressed mRNA in the absence of chemical substance (yeast gene YFR052W): 1.5 | The level of expressed mRNA in the presence of chemical substance/The level of expressed mRNA in the absence of chemical substance (yeast gene YGL073W): 0.8 | The level of expressed mRNA in the presence of chemical substance/The level of expressed mRNA in the absence of chemical substance (yeast gene YGL115W): 1.0 | The level of expressed mRNA in the presence of chemical substance/The level of expressed mRNA in the absence of chemical substance (yeast gene YGL181W): 1.2 | The level of expressed mRNA in the presence of chemical substance/The level of expressed mRNA in the absence of chemical substance (yeast gene YGR088W): 0.8 | The level of expressed mRNA in the presence of chemical substance/The level of expressed mRNA in the absence of chemical substance (yeast gene YHL028W): 0.4 | The level of expressed mRNA in the presence of chemical substance/The level of expressed mRNA in the absence of chemical substance (yeast gene YHL046C): 1.0 | The level of expressed mRNA in the presence of chemical substance/The level of expressed mRNA in the absence of chemical substance (yeast gene YHR030C): 1.5 | The level of expressed mRNA in the presence of chemical substance/The level of expressed mRNA in the absence of chemical substance (yeast gene YHR057C): 1.0 | The level of expressed mRNA in the presence of chemical substance/The level of expressed mRNA in the absence of chemical substance (yeast gene YHR104W): 1.1 | The level of expressed mRNA in the presence of chemical substance/The level of expressed mRNA in the absence of chemical substance (yeast gene YIL011W): 0.7 | The level of expressed mRNA in the presence of chemical substance/The level of expressed mRNA in the absence of chemical substance (yeast gene YIL033C): 0.7 | The level of expressed mRNA in the presence of chemical substance/The level of expressed mRNA in the absence of chemical substance (yeast gene YIR037W): 1.3 | The level of expressed mRNA in the presence of chemical substance/The level of expressed mRNA in the absence of chemical substance (yeast gene YIR038C): 1.3 | The level of expressed mRNA in the presence of chemical substance/The level of expressed mRNA in the absence of chemical substance (yeast gene YJL128C): 0.9 | The level of expressed mRNA in the presence of chemical substance/The level of expressed mRNA in the absence of chemical substance (yeast gene YJL158C): 0.7 | The level of expressed mRNA in the presence of chemical substance/The level of expressed mRNA in the absence of chemical substance (yeast gene YJL159W): 0.8 | The level of expressed mRNA in the presence of chemical substance/The level of expressed mRNA in the absence of chemical substance (yeast gene YJL165C): 0.7 | The level of expressed mRNA in the presence of chemical substance/The level of expressed mRNA in the absence of chemical substance (yeast gene YJR045C): 0.8 | The level of expressed mRNA in the presence of chemical substance/The level of expressed mRNA in the absence of chemical substance (yeast gene YJR090C): 0.8 | The level of expressed mRNA in the presence of chemical substance/The level of expressed mRNA in the absence of chemical substance (yeast gene YKL161C): 1.9 | The level of expressed mRNA in the presence of chemical substance/The level of expressed mRNA in the absence of chemical substance (yeast gene YKL163W): 0.8 | The level of expressed mRNA in the presence of chemical substance/The level of expressed mRNA in the absence of chemical substance (yeast gene YKL164C): 0.8 | The level of expressed mRNA in the presence of chemical substance/The level of expressed mRNA in the absence of chemical substance (yeast gene YKL210W): 0.9 | The level of expressed mRNA in the presence of chemical substance/The level of expressed mRNA in the absence of chemical substance (yeast gene YKR053C): 0.9 | The level of expressed mRNA in the presence of chemical substance/The level of expressed mRNA in the absence of chemical substance (yeast gene YLL024C): 0.7 | The level of expressed mRNA in the presence of chemical substance/The level of expressed mRNA in the absence of chemical substance (yeast gene YLL026W): 1.4 | The level of expressed mRNA in the presence of chemical substance/The level of expressed mRNA in the absence of chemical substance (yeast gene YLL039C): 1.1 | The level of expressed mRNA in the presence of chemical substance/The level of expressed mRNA in the absence of chemical substance (yeast gene YLL060C): 5.8 | The level of expressed mRNA in the presence of chemical substance/The level of expressed mRNA in the absence of chemical substance (yeast gene YLR006C): 0.9 | The level of expressed mRNA in the presence of chemical substance/The level of expressed mRNA in the absence of chemical substance (yeast gene YLR109W): 0.9 | The level of expressed mRNA in the presence of chemical substance/The level of expressed mRNA in the absence of chemical substance (yeast gene YLR259C): 0.8 | The level of expressed mRNA in the presence of chemical substance/The level of expressed mRNA in the absence of chemical substance (yeast gene YML007W): 1.9 | The level of expressed mRNA in the presence of chemical substance/The level of expressed mRNA in the absence of chemical substance (yeast gene YML070W): 1.3 | The level of expressed mRNA in the presence of chemical substance/The level of expressed mRNA in the absence of chemical substance (yeast gene YMR021C): 1.3 | The level of expressed mRNA in the presence of chemical substance/The level of expressed mRNA in the absence of chemical substance (yeast gene YMR173W): 2.3 | The level of expressed mRNA in the presence of chemical substance/The level of expressed mRNA in the absence of chemical substance (yeast gene YMR186W): 0.8 | The level of expressed mRNA in the presence of chemical substance/The level of expressed mRNA in the absence of chemical substance (yeast gene YNL064C): 1.4 | The level of expressed mRNA in the presence of chemical substance/The level of expressed mRNA in the absence of chemical substance (yeast gene YNL160W): 1.2 | The level of expressed mRNA in the presence of chemical substance/The level of expressed mRNA in the absence of chemical substance (yeast gene YNL241C): 0.9 | The level of expressed mRNA in the presence of chemical substance/The level of expressed mRNA in the absence of chemical substance (yeast gene YNR076W): 1.0 | The level of expressed mRNA in the presence of chemical substance/The level of expressed mRNA in the absence of chemical substance (yeast gene YOL064C): 1.0 | The level of expressed mRNA in the presence of chemical substance/The level of expressed mRNA in the absence of chemical substance (yeast gene YOL161C): 0.8 | The level of expressed mRNA in the presence of chemical substance/The level of expressed mRNA in the absence of chemical substance (yeast gene YOR008C): 0.8 | The level of expressed mRNA in the presence of chemical substance/The level of expressed mRNA in the absence of chemical substance (yeast gene YOR009W): 0.7 | The level of expressed mRNA in the presence of chemical substance/The level of expressed mRNA in the absence of chemical substance (yeast gene YOR010C): 0.5 | The level of expressed mRNA in the presence of chemical substance/The level of expressed mRNA in the absence of chemical substance (yeast gene YOR027W): 0.9 | The level of expressed mRNA in the presence of chemical substance/The level of expressed mRNA in the absence of chemical substance (yeast gene YOR208W): 1.0 | The level of expressed mRNA in the presence of chemical substance/The level of expressed mRNA in the absence of chemical substance (yeast gene YPL059W): 1.4 | The level of expressed mRNA in the presence of chemical substance/The level of expressed mRNA in the absence of chemical substance (yeast gene YPL106C): 1.2 | The level of expressed mRNA in the presence of chemical substance/The level of expressed mRNA in the absence of chemical substance (yeast gene YPL140C): 1.1 | The level of expressed mRNA in the presence of chemical substance/The level of expressed mRNA in the absence of chemical substance (yeast gene YPL194W): 1.3 | The level of expressed mRNA in the presence of chemical substance/The level of expressed mRNA in the absence of chemical substance (yeast gene YPL223C): 1.2 | The level of expressed mRNA in the presence of chemical substance/The level of expressed mRNA in the absence of chemical substance (yeast gene YPL240C): 1.2 | The level of expressed mRNA in the presence of chemical substance/The level of expressed mRNA in the absence of chemical substance (yeast gene YPR005C): 1.2 | The level of expressed mRNA in the presence of chemical substance/The level of expressed mRNA in the absence of chemical substance (yeast gene YPR026W): 1.0
